Measurements: ChEMBL document CHEMBL1201862, “PubChem BioAssay data set” (2004)
Active and inactive are the calls of the source.

Tests used:
HEK293 [1] = experiment: cells; conditions: Homo sapiens
[2] = molecular target: T1, Histone-lysine N-methyltransferase NSD2 (Homo sapiens, UniProt O96028); format: biochemical
T1 sequence (O96028 whole entry): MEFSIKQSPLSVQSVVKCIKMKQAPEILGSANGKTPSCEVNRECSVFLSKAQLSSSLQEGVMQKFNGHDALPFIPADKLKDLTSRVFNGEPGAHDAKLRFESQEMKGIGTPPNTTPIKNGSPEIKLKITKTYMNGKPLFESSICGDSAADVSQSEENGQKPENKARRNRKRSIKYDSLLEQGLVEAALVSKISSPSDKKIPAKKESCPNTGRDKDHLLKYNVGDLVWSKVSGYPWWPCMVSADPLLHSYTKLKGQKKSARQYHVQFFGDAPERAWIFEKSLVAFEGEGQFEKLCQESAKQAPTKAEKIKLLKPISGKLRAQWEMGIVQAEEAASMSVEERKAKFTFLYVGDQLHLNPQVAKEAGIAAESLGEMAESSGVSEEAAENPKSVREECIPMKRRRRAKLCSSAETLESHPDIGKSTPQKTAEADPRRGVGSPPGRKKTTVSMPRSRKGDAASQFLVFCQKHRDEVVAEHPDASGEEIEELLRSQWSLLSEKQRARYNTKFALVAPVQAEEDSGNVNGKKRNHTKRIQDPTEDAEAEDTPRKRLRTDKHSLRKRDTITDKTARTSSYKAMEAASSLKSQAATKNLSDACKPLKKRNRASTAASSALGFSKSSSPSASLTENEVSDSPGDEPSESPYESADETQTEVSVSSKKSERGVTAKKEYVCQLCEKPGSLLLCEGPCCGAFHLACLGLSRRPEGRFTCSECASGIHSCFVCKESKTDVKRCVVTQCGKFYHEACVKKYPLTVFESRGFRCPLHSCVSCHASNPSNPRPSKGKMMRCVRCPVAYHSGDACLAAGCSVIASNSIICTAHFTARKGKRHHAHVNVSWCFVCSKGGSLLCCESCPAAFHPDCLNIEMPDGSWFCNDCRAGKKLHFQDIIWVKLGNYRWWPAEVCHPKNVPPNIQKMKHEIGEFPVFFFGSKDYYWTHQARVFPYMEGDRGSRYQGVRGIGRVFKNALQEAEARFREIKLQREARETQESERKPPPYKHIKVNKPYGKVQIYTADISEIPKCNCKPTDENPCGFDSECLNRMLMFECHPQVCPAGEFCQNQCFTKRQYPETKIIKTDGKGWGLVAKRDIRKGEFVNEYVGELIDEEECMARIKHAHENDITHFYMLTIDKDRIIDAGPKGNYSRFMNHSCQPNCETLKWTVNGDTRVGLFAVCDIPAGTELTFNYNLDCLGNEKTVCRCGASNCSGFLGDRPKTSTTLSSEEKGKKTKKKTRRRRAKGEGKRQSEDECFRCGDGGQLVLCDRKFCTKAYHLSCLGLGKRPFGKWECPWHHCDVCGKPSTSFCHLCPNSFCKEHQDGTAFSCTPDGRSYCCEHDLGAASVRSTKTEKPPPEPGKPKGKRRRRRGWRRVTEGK

[3] = Luminescence Cell-Based Dose Retest to Confirm Inhibitors of Cancer Stem Cells. [Related pubchem assays (depositor defined):AID2717, AID2721]; format: functional; conditions: Homo sapiens
HEK293 [4] = experiment: cells; conditions: Homo sapiens; remark: listed apart in the source
[5] = molecular target: Dual specificity tyrosine-phosphorylation-regulated kinase 1A (Rattus norvegicus, UniProt Q63470); format: biochemical, Homo sapiens
[6] = molecular target: T2, Sentrin-specific protease 8 (Homo sapiens, UniProt Q96LD8); format: functional
T2 sequence (Q96LD8 whole entry): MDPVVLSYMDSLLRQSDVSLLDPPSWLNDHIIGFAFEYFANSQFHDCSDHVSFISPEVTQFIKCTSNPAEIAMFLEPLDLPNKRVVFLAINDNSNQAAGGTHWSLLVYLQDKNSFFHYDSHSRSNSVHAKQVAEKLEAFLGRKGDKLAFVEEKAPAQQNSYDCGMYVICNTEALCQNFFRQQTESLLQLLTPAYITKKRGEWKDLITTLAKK

[7] = molecular target: T2, Sentrin-specific protease 8; format: functional; remark: listed apart in the source
[8] = viability loss in HeLa cells – cytotoxicity control for MgcRacGAP inhibitor project, dose response (AID 624300); format: functional
[9] = Fluorescence-based cell-based high throughput dose response assay for inhibitors of the interaction of nucleotide-binding oligomerization domain containing 2 (NOD2) and the receptor-interacting serine-threonine kinase 2 (RIPK2).; format: functional; conditions: Homo sapiens
[10] = molecular target: T3, High affinity choline transporter 1 (Homo sapiens, UniProt Q9GZV3); experiment: human choline transporter blockers, potency – cell-based, 5-point CRC, membrane potential dye, dose response (AID 504840); format: functional
T3 sequence (Q9GZV3 whole entry): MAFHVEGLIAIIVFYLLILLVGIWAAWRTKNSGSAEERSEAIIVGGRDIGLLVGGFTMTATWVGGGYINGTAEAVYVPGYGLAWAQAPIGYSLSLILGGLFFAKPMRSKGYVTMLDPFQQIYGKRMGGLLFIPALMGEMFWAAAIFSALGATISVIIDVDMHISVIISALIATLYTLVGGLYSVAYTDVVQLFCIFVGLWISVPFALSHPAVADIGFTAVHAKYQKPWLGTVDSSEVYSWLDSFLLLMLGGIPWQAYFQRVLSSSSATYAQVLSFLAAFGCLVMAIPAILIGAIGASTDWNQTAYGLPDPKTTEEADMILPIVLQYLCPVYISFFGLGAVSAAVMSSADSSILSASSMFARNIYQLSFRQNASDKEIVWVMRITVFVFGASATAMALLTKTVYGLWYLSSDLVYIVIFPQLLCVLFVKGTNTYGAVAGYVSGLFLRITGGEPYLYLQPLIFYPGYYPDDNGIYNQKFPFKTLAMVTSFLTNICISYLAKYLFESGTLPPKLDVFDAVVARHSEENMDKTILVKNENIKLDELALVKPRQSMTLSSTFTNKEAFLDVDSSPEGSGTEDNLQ

Vero [11] = experiment: cells; format: functional, cell-based; conditions: Chlorocebus sabaeus
Vero [12] = experiment: cells; format: functional; conditions: Chlorocebus sabaeus
[13] = viability of uninfected HEp-2 cells – cell-based, HTS, cytotoxicity control for RSV inhibitor project, dose response (AID 2410); format: functional; conditions: human respiratory syncytial virus
Albumin = Albumin (Bos taurus, UniProt P02769); experiment: Counterscreen for inhibitors of T-cell receptor (TCR)-CD3 interaction: Fluorescence-based biochemical high throughput dose response assay to identify inhibitors of T-cell receptor (TCR)-CD3 interaction using a TAMRA-labeled BSA probe.; format: functional
Melanocortin receptor 4 = Melanocortin receptor 4 (Homo sapiens, UniProt P32245); format: functional, cell-based;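 further: Cell-based assay with luminescence read-out, confirmatory dose-response testing for agonist activity of biased ligands at MC4R; human U2OS cells with tagged receptor and beta-arrestin; potency of agonists that increase receptor coupling to beta-arrestin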
[14] = microbe, parasite or virus in culture; format: functional; conditions: Mycobacterium tuberculosis
[15] = molecular target: T4, Low molecular weight phosphotyrosine protein phosphatase (Homo sapiens, UniProt P24666); format: functional; conditions: read-out: IC50_Mean
T4 sequence (P24666 whole entry): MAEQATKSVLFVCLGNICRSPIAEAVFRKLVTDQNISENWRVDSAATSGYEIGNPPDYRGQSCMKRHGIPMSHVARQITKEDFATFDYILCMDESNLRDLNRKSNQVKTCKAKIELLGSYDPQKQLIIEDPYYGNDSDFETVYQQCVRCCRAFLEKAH

[16] = molecular target: T4, Low molecular weight phosphotyrosine protein phosphatase; format: functional; conditions: read-out: IC50_Mean; remark: listed apart in the source
[17] = NIH3T3 cell viability loss – ATP luminescence, mouse fibroblasts, counter-screen, dose response (AID 2010); format: functional, cell-based;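 further: cells exposed to compound for about 90 hours before reading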
[18] = Trypanosoma cruzi growth suppression in host cells – NIH3T3 host cells, beta-gal luminescence, confirmation (AID 2044); format: functional, cell-based;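 further: intracellular parasites grown in NIH/3T3 mouse fibroblasts as host cells; luminescent beta-galactosidase reporter signal from transgenic T. cruzi replicating inside host cells; inhibitors lower the luminescence signal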
Genome polyprotein = Genome polyprotein (dengue virus type 2, UniProt P29990); experiment: flavivirus cap methylation enzyme inhibition – biochemical, confirmation dose response, primary screen (AID 588689); format: functional
[19] = molecular target: T5, Rac GTPase-activating protein 1 (Homo sapiens, UniProt Q9H0H5); experiment: blockers of MgcRacGAP-driven Rac1 GTP hydrolysis – biochemical, ADP Hunter fluorescence, primary and confirmatory, confirmation (AID 624330); format: functional
T5 sequence (Q9H0H5 whole entry): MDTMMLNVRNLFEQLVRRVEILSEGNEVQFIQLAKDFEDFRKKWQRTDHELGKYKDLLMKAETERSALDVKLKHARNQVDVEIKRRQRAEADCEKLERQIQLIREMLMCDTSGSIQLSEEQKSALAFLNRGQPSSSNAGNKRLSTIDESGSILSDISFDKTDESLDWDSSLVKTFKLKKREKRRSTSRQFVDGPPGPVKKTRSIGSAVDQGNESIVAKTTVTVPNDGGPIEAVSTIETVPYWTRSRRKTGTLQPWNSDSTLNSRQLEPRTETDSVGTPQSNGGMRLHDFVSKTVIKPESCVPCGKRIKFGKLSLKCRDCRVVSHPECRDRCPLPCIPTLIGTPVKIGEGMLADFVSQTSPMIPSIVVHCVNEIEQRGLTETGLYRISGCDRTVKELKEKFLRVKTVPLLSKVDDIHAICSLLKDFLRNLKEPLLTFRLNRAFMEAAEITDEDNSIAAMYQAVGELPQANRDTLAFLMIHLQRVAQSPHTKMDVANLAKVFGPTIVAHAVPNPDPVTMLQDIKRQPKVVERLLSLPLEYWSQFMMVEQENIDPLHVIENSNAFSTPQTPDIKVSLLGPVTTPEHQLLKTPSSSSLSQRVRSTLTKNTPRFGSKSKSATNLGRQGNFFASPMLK

Large T antigen = Large T antigen (Simian virus 40, UniProt P03070); format: functional, Betapolyomavirus macacae;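 further: Confirmatory-stage PubChem screen for compounds that inhibit SV40 T antigen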
[20] = molecular target: T6, Mannose-6-phosphate isomerase (Homo sapiens, UniProt P34949); experiment: MPI inhibition at elevated mannose 6-phosphate – biochemical, fluorescence intensity, high mannose 6-phosphate, primary screen (AID 1220)
T6 sequence (P34949 whole entry): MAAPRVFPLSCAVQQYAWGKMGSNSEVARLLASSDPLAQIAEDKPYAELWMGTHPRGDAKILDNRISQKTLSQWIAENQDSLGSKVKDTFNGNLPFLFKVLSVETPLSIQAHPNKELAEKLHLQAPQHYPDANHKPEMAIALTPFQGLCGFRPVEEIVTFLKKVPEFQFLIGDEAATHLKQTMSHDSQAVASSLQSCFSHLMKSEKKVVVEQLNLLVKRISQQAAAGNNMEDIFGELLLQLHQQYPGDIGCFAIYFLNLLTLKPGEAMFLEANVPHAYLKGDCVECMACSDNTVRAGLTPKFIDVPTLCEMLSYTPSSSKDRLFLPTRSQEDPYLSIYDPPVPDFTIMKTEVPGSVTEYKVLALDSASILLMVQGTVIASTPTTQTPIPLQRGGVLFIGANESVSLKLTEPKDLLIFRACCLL

[21] = T. cruzi growth inhibition in host cells, dose response, cell-based, plate reader, dry powder, set 2 (AID 652275); format: functional
[22] = HGIII-sPLA2 enzyme inhibition potency – biochemical, QFRET, IC50, dose response (AID 743457);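 further: green fluorescence rise as the enzyme cleaves BODIPY PC-A2 in liposomes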

Albumin, sequence (P02769 whole entry): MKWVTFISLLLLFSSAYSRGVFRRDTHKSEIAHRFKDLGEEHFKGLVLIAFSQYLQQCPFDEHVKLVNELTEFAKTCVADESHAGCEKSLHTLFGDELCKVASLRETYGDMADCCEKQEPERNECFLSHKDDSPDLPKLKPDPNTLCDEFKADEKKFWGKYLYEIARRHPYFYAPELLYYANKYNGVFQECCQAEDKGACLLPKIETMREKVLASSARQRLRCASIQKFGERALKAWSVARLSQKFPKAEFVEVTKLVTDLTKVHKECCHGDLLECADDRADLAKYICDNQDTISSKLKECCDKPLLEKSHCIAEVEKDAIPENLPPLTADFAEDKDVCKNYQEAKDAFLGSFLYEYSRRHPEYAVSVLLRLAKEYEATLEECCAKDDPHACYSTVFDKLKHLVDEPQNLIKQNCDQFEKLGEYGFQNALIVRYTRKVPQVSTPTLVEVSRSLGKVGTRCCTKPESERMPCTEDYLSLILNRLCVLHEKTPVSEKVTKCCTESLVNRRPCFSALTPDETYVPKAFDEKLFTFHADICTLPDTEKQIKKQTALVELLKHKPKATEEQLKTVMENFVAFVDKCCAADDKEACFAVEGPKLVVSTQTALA
Melanocortin receptor 4, sequence (P32245 whole entry): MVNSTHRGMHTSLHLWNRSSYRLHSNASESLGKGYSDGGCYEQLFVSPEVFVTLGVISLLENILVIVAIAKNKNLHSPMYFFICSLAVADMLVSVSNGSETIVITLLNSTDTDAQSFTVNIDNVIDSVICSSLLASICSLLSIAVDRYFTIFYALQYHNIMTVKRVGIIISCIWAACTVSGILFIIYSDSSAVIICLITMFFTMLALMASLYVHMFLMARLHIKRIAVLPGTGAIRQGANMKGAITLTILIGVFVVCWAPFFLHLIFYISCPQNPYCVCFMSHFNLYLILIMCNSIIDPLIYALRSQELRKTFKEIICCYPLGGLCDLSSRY
Large T antigen, sequence (P03070 whole entry): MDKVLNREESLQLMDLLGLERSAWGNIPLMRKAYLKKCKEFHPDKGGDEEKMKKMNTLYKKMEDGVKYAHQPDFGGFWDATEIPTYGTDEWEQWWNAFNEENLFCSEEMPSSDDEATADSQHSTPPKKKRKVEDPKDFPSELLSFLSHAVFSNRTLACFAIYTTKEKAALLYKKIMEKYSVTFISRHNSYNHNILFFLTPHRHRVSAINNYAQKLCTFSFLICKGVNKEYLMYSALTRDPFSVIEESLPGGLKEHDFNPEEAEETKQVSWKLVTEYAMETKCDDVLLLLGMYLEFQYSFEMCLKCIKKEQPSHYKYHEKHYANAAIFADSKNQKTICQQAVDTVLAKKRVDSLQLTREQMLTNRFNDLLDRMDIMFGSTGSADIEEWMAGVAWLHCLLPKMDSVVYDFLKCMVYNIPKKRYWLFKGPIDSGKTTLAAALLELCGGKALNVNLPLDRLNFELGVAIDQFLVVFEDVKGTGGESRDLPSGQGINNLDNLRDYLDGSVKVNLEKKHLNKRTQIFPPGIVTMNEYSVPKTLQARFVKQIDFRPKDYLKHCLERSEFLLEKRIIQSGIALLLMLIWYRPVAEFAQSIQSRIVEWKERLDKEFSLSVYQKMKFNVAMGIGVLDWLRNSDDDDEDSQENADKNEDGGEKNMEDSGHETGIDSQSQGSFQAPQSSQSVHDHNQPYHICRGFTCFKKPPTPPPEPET
Genome polyprotein, sequence (P29990 2492-3391 limits assumed): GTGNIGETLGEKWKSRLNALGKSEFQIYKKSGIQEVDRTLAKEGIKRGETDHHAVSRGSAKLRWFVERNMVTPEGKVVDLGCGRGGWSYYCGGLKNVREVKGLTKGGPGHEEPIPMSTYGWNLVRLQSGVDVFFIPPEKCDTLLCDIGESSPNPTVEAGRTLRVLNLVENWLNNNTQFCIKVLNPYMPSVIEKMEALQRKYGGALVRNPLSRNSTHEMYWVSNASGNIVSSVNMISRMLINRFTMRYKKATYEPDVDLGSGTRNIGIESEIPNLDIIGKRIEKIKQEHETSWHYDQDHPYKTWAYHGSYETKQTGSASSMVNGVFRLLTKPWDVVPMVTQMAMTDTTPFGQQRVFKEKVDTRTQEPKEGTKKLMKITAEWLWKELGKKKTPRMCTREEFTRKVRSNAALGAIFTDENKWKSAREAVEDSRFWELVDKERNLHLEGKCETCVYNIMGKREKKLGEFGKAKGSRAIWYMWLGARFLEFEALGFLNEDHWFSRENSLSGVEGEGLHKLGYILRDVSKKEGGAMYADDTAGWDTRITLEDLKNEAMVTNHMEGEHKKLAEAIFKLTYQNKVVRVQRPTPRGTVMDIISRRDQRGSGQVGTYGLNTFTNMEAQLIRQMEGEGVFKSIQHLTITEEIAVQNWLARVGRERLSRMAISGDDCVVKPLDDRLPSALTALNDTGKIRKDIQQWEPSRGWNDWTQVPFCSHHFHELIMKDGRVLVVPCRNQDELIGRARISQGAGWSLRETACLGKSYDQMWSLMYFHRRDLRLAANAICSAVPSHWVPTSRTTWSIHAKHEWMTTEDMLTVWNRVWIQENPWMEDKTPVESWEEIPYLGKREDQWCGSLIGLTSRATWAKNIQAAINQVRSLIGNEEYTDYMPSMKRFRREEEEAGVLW

With Cc1ccc(N2C(=O)NC(=O)/C(=C\C=C\c3ccco3)C2=O)cc1 the EC50 (HEK293 [1]) was > 59.6 µM (inactive), the AC50 [2] was > 20 µM (inactive) and the AC50 [3] was 2.98 µM (active). The EC50 (HEK293 [4]) was > 59.6 µM (inactive).

In the case of O=C1NC(=O)/C(=C\c2ccc(Oc3cnccn3)cc2)S1, the AC50 [5] is reported as 4.71 µM (active).

With Cc1ccc(-c2nn[nH]n2)cc1Cl the AC50 [5] was 9.99 µM (active).

In the case of O=C(O)c1cccc(N2C(=O)c3ccc4c5c(ccc(c35)C2=O)C(=O)N(c2cccc(C(=O)O)c2)C4=O)c1, the IC50 [6] is reported as 16.5 µM (active) and the IC50 [7] is reported as 13.7 µM (active).

For CCOC(=O)/C(C#N)=C\c1c(OCC)n(CC)c2ccccc12, the CC50 [8] was 100 µM (active).

With CC(NC(=O)CN(c1cccc(C(F)(F)F)c1)S(=O)(=O)c1ccc(Cl)c([N+](=O)[O-])c1)c1ccccc1 (stereo unspecified) the IC50 [9] was 15.6 µM (inactive).

With Cc1ccc(Oc2ccc(NC(=O)Cn3ccsc3=N)cc2)cc1 the IC50 [10] was 13.2 µM (active), the IC50 (Vero [11]) was > 25 µM (active) and the CC50 (Vero [12]) was 19.1 µM (active). The CC50 [13] was 15.7 µM (active).

With Cc1n[nH]c(S/C(=C/c2ccc(OCc3ccc(C(=O)O)cc3)cc2)C(=O)O)n1 the IC50 (Albumin) was > 94.1 µM (inactive).

With Cc1ccc(CN2CCC(c3cc(-c4ccc(Cl)cc4)[nH]n3)CC2)cc1 the EC50 (Melanocortin receptor 4) was > 89.2 µM (inactive) and the CC50 [14] was > 40 µM (active).

In the case of Fc1ccccc1-c1nc(NCCCN2CCOCC2)c2ccccc2n1, the IC50 [15] is reported as 33 µM (inactive) and the IC50 [16] is reported as 13 µM (active).

With O=c1c2ccccc2[nH]c(=S)n1CCCN1CCN(c2ccccc2)CC1 the EC50 [17] was > 60 µM (not active), the IC50 (Vero [11]) was > 25 µM (active) and the EC50 [18] was < 0.1 µM (active). For the same compound, the EC50 (cells) was 0.169 µM (active) and the CC50 [13] was > 12.5 µM (active).

In the case of CC1=NN(c2ccc(Cl)c(C(=O)O)c2)C(=O)/C1=C/c1ccc(-c2ccccc2[N+](=O)[O-])o1, the IC50 (Genome polyprotein) is reported as 9.5 µM (active), the IC50 [19] is reported as 28.7 µM (active) and the IC50 (Large T antigen) is reported as 15.7 µM (active). The CC50 [8] was 100 µM (active).

With O=c1c2ccccc2[nH]c(=S)n1CCCN1CCN(c2ccccc2F)CC1 the IC50 (Vero [11]) was > 25 µM (active).

For O=C1NC(=O)N(Cc2ccco2)C(=O)/C1=C/NNC(=O)c1ccccc1, the IC50 (Albumin) was > 94.2 µM (inactive).

For CN(C)C=O.Cc1cc(-c2ccco2)c(C#N)c2nc3ccccc3n12, the IC50 [15] was > 80 µM (inactive), the IC50 [20] was > 50 µM (not active) and the IC50 [16] was 37.5 µM (inactive).

With CC(C)(C)[S@@+]([O-])N1Cc2cc(C(=O)NCc3ccc4c(c3)OCO4)nc(-c3cccc(-c4ccccc4)c3)c2[C@H]1CCO the AC50 [21] was 0.309 µM (active).

For O=C(Cc1ccccn1)N1CCCCN2[C@@H](CO)[C@H](c3ccc(-c4ccc(F)cc4)cc3)[C@@H]2C1, the AC50 [21] was 1.43 µM (active).

In the case of O=C1C(=O)N(Cc2ccc(-c3ccsc3)cc2)c2ccc(OC(F)(F)F)cc21, the IC50 [22] is reported as 25.5 µM (inactive).
